According to patent US6114310A, “Efflux pump inhibitors” (priority 1998, dated 2000):

Tested on: Pseudomonas aeruginosa PAM1001
Assay: microbe, parasite or virus in culture
Type: cell-based
Procedure, shortened: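 Checkerboard broth microdilution (NCCLS) with the efflux pump inhibitor and levofloxacin, each diluted along one axis of the plate, in Mueller Hinton Broth. Inoculum 5×10^5 CFU/ml from early-log culture; incubation 20 h at 35° C. Growth read at 650 nm and visually.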

[1] = Table 1, EPI Conc. μg/ml (number not given; column between 10 and 40 μg/ml)
[2] = Table 2, EPI Conc. μg/ml (number not given; column between 10 and 40 μg/ml)

| Substance | Levofloxacin MIC Against P. aeruginosa PAM1001 in Presence of Efflux Pump Inhibitor (EPI), Minimum Inhibitory Concentration (Table 1, EPI Conc. 0 μg/ml) | Levofloxacin MIC Against P. aeruginosa PAM1001 in Presence of Efflux Pump Inhibitor (EPI), Minimum Inhibitory Concentration (Table 1, EPI Conc. 0.625 μg/ml) | Levofloxacin MIC Against P. aeruginosa PAM1001 in Presence of Efflux Pump Inhibitor (EPI), Minimum Inhibitory Concentration (Table 1, EPI Conc. 5 μg/ml) | Levofloxacin MIC Against P. aeruginosa PAM1001 in Presence of Efflux Pump Inhibitor (EPI), Minimum Inhibitory Concentration (Table 1, EPI Conc. 10 μg/ml) | Levofloxacin MIC Against P. aeruginosa PAM1001 in Presence of Efflux Pump Inhibitor (EPI), Minimum Inhibitory Concentration (Table 1, EPI Conc. 40 μg/ml) | Levofloxacin MIC Against P. aeruginosa PAM1001 in Presence of Efflux Pump Inhibitor (EPI), Minimum Inhibitory Concentration [1] | Levofloxacin MIC Against P. aeruginosa PAM1001 in Presence of Efflux Pump Inhibitor (EPI), Minimum Inhibitory Concentration (Table 2, EPI Conc. 0 μg/ml) | Levofloxacin MIC Against P. aeruginosa PAM1001 in Presence of Efflux Pump Inhibitor (EPI), Minimum Inhibitory Concentration (Table 2, EPI Conc. 0.625 μg/ml) | Levofloxacin MIC Against P. aeruginosa PAM1001 in Presence of Efflux Pump Inhibitor (EPI), Minimum Inhibitory Concentration (Table 2, EPI Conc. 5 μg/ml) | Levofloxacin MIC Against P. aeruginosa PAM1001 in Presence of Efflux Pump Inhibitor (EPI), Minimum Inhibitory Concentration (Table 2, EPI Conc. 10 μg/ml) | Levofloxacin MIC Against P. aeruginosa PAM1001 in Presence of Efflux Pump Inhibitor (EPI), Minimum Inhibitory Concentration (Table 2, EPI Conc. 40 μg/ml) | Levofloxacin MIC Against P. aeruginosa PAM1001 in Presence of Efflux Pump Inhibitor (EPI), Minimum Inhibitory Concentration (Table 2, EPI Conc. […]) | Levofloxacin MIC Against P. aeruginosa PAM1001 in Presence of Efflux Pump Inhibitor (EPI), Minimum Inhibitory Concentration [2] | further results |
| --- | --- | --- | --- | --- | --- | --- | --- | --- | --- | --- | --- | --- | --- | --- |
| β-(2-Thiaizolyl)alanyl-Nα -methylornithine 2-naphthylamide [Compound 30 (Table 1)] | 4 µg/mL | 4 µg/mL | 1 µg/mL | 0.25 µg/mL | 0.25 µg/mL | 0.25 µg/mL | 4 µg/mL | 4 µg/mL | 2 µg/mL | 1 µg/mL | 0.25 µg/mL | 4 µg/mL | 0.50 µg/mL |  |
| 4-(O-Methylcarboxyamido)phenylalanyl-Nα -methylornithine 2-naphthylamide [Compound 32 (Table 1)] | 4 µg/mL | 4 µg/mL | 0.50 µg/mL | 0.125 µg/mL | 0.06 µg/mL | 0.06 µg/mL | 4 µg/mL | 4 µg/mL | 2 µg/mL | 0.50 µg/mL | 0.03 µg/mL | 4 µg/mL | 0.25 µg/mL |  |
| D-Ornithyl-β-(N-phenylpropyl)alanine 2-naphthylamide [Compound 20 (Table 3)] | 4 µg/mL | 4 µg/mL | 4 µg/mL | 2 µg/mL | 0.25 µg/mL | 1 µg/mL | 4 µg/mL | 4 µg/mL | 2 µg/mL | 1 µg/mL | 0.03 µg/mL | 4 µg/mL | 0.50 µg/mL | Levofloxacin MIC Against P. aeruginosa PAM1001 in Presence of Efflux Pump Inhibitor (EPI), Minimum Inhibitory Concentration (Table 1, EPI Conc. […]): 4 µg/mL; Levofloxacin MIC Against P. aeruginosa PAM1001 in Presence of Efflux Pump Inhibitor (EPI), Minimum Inhibitory Concentration (Table 3, EPI Conc. 0 μg/ml): 4 µg/mL; Levofloxacin MIC Against P. aeruginosa PAM1001 in Presence of Efflux Pump Inhibitor (EPI), Minimum Inhibitory Concentration (Table 3, EPI Conc. 0.625 μg/ml): 4 µg/mL; Levofloxacin MIC Against P. aeruginosa PAM1001 in Presence of Efflux Pump Inhibitor (EPI), Minimum Inhibitory Concentration (Table 3, EPI Conc. 5 μg/ml): 2 µg/mL; Levofloxacin MIC Against P. aeruginosa PAM1001 in Presence of Efflux Pump Inhibitor (EPI), Minimum Inhibitory Concentration (Table 3, EPI Conc. 10 μg/ml): 0.50 µg/mL; Levofloxacin MIC Against P. aeruginosa PAM1001 in Presence of Efflux Pump Inhibitor (EPI), Minimum Inhibitory Concentration (Table 3, EPI Conc. 40 μg/ml): 0.015 µg/mL; Levofloxacin MIC Against P. aeruginosa PAM1001 in Presence of Efflux Pump Inhibitor (EPI), Minimum Inhibitory Concentration (Table 3, EPI Conc. […]): 4 µg/mL; Levofloxacin MIC Against P. aeruginosa PAM1001 in Presence of Efflux Pump Inhibitor (EPI), Minimum Inhibitory Concentration (Table 3, EPI Conc. μg/ml (number not given; column between 10 and 40 μg/ml)): 0.03 µg/mL; Levofloxacin MIC Against P. aeruginosa PAM1001 in Presence of Efflux Pump Inhibitor (EPI), Minimum Inhibitory Concentration (Table 4, EPI Conc. 0 μg/ml): 4 µg/mL; Levofloxacin MIC Against P. aeruginosa PAM1001 in Presence of Efflux Pump Inhibitor (EPI), Minimum Inhibitory Concentration (Table 4, EPI Conc. 0.625 μg/ml): 4 µg/mL; Levofloxacin MIC Against P. aeruginosa PAM1001 in Presence of Efflux Pump Inhibitor (EPI), Minimum Inhibitory Concentration (Table 4, EPI Conc. 5 μg/ml): 2 µg/mL; Levofloxacin MIC Against P. aeruginosa PAM1001 in Presence of Efflux Pump Inhibitor (EPI), Minimum Inhibitory Concentration (Table 4, EPI Conc. 10 μg/ml): 2 µg/mL; Levofloxacin MIC Against P. aeruginosa PAM1001 in Presence of Efflux Pump Inhibitor (EPI), Minimum Inhibitory Concentration (Table 4, EPI Conc. 40 μg/ml): 1 µg/mL; Levofloxacin MIC Against P. aeruginosa PAM1001 in Presence of Efflux Pump Inhibitor (EPI), Minimum Inhibitory Concentration (Table 4, EPI Conc. […]): 4 µg/mL; Levofloxacin MIC Against P. aeruginosa PAM1001 in Presence of Efflux Pump Inhibitor (EPI), Minimum Inhibitory Concentration (Table 4, EPI Conc. μg/ml (number not given; column between 10 and 40 μg/ml)): 2 µg/mL |
